Key:
[1] = target: T1, Cyclin-dependent kinase 11A (Homo sapiens) (UniProt Q9UQ88); assay: Selectivity interaction (KinomeScan (DiscoverX)) EUB0000595a CDK11A; details: at 10 µM
T1 sequence (whole entry): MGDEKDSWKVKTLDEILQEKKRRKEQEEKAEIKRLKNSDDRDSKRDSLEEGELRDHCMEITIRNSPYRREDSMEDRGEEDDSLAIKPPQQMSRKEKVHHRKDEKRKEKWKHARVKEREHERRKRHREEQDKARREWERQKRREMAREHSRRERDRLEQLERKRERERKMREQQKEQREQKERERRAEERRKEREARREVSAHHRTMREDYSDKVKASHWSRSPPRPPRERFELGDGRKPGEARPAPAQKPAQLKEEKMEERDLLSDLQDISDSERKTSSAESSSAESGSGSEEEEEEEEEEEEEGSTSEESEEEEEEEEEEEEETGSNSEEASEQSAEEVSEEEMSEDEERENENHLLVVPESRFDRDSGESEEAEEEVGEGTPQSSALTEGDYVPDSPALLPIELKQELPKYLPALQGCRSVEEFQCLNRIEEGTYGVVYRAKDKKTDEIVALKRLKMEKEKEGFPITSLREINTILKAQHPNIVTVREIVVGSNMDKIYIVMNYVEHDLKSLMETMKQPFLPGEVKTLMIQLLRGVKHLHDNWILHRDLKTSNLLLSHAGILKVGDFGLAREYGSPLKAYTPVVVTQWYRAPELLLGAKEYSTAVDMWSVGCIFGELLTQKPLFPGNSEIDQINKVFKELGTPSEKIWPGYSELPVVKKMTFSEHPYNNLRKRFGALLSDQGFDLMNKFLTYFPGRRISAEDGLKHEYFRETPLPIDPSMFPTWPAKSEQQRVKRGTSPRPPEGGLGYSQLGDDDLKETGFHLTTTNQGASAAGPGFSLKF

[2] = target: Serine/threonine-protein kinase 26 (Homo sapiens, UniProt Q9P289); assay: Selectivity interaction (ProQinase) EUB0000171b STK26
Serine/threonine-protein kinase 26, sequence (Q9P289 2-416 limits assumed): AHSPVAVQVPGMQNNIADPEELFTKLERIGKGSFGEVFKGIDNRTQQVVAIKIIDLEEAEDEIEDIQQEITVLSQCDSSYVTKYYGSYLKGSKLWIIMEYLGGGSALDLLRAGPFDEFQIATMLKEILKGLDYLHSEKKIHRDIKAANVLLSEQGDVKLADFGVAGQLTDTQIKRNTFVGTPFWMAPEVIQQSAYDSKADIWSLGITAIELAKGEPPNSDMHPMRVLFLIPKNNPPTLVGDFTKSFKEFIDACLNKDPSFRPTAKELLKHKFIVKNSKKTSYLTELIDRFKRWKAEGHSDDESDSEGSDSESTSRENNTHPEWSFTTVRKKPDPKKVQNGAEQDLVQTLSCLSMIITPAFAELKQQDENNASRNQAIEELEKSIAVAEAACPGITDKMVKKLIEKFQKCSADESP

[3] = target: T2, Alpha-1B adrenergic receptor (Homo sapiens) (UniProt P35368); assay: Selectivity interaction (Panel of kinases, GPCRs, ion channels and transporters (enzymatic assay)) EUB0000223bCl ADRA1B
T2 sequence (whole entry): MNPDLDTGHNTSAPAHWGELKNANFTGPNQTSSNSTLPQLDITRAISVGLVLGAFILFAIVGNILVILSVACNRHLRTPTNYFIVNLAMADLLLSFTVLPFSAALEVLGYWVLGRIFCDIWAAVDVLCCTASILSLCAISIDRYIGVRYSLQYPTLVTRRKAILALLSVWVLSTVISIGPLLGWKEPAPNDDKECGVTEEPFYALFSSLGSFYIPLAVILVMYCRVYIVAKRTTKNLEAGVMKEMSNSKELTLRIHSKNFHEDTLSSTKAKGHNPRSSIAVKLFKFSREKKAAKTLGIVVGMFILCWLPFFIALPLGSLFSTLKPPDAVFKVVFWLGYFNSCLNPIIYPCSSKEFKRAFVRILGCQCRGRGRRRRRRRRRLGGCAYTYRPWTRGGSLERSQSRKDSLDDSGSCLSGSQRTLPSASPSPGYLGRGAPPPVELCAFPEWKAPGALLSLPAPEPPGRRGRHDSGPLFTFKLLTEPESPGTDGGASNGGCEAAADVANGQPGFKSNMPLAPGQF

[4] = target: Platelet-derived growth factor receptor beta (Homo sapiens, UniProt P09619); assay: Selectivity interaction (SelectScreen profiling (Invitrogen)) EUB0000607a PDGFRB; details: at 2 µM
Misshapen-like kinase 1 = Misshapen-like kinase 1 (Homo sapiens, UniProt Q8N4C8); assay: Selectivity interaction (SelectScreen profiling (Invitrogen)) EUB0000607a MINK1; details: at 2 µM
Misshapen-like kinase 1, sequence (Q8N4C8 whole entry, looked up): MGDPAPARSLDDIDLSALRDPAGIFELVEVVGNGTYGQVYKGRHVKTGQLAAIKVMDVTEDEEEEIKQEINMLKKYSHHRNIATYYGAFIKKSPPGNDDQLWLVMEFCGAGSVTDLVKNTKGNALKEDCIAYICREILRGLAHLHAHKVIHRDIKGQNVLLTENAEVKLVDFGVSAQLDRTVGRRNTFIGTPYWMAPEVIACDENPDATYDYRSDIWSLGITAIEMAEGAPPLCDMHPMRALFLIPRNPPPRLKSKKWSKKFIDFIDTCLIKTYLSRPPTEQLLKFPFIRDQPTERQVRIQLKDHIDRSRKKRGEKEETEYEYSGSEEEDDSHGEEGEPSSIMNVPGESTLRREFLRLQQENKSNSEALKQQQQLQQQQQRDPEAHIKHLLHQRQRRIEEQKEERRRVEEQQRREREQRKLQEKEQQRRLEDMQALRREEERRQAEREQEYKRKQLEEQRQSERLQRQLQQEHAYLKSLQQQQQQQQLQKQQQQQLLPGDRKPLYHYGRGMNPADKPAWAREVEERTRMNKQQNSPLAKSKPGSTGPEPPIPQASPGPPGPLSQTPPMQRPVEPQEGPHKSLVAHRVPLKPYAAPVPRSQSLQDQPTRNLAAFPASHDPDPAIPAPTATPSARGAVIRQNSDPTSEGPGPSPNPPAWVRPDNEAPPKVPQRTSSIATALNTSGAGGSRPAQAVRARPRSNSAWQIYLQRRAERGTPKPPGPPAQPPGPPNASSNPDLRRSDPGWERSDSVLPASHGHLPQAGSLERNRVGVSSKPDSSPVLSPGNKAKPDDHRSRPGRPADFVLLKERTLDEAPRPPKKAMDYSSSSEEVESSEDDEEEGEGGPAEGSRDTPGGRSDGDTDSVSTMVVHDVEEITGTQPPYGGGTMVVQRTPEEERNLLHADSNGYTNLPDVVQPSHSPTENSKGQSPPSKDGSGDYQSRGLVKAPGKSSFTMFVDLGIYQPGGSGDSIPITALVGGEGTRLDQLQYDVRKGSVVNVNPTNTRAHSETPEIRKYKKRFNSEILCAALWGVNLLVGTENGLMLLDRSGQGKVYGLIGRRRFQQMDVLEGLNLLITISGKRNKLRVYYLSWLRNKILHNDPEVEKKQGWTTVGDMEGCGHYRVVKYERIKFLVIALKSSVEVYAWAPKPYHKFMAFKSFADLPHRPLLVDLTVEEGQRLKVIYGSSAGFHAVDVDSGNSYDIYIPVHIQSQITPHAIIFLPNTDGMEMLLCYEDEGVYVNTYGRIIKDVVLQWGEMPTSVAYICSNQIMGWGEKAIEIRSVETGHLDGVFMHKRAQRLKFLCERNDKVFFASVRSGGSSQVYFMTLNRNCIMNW

[5] = target: Tyrosine-protein kinase ABL1 (Homo sapiens, UniProt P00519); assay: Selectivity interaction (Kinase panel (DSF assay)) EUB0001558a ABL1
Tyrosine-protein kinase ABL1, sequence (P00519 whole entry): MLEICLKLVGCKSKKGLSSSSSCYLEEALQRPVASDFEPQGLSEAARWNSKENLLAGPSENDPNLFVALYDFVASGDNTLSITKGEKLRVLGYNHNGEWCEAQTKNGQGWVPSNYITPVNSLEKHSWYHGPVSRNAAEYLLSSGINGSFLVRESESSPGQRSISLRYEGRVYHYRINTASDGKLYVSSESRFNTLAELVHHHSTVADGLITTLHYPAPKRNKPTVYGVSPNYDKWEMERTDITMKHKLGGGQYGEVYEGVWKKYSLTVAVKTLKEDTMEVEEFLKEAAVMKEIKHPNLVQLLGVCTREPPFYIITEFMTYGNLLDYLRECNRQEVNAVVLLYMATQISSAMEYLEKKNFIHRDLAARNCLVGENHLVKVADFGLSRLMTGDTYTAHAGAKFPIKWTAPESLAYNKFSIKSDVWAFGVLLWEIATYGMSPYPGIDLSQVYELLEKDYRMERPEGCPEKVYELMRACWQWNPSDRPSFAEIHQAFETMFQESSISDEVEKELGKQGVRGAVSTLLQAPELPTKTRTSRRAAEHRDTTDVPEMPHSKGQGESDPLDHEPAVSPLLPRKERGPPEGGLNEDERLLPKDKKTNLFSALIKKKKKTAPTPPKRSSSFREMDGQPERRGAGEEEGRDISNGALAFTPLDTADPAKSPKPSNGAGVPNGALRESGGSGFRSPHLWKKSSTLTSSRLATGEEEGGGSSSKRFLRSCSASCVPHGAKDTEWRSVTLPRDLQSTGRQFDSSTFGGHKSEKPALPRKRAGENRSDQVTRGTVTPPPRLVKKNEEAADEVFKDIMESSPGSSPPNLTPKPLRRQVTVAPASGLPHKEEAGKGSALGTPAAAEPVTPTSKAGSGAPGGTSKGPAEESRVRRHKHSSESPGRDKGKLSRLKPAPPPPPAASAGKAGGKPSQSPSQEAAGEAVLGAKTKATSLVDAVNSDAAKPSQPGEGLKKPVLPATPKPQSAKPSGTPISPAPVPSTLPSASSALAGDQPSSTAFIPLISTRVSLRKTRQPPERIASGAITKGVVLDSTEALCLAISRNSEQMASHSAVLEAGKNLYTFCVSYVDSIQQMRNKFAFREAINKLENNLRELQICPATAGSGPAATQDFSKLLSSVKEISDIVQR

[6] = target: RAC-alpha serine/threonine-protein kinase (Homo sapiens, UniProt P31749); assay: Selectivity interaction (ActivX KiNativ screen (kinase selectivity in THP-1 cell lysates)) EUB0000639a AKT1; format: subcellular; details: lysate
RAC-alpha serine/threonine-protein kinase, sequence (P31749 whole entry): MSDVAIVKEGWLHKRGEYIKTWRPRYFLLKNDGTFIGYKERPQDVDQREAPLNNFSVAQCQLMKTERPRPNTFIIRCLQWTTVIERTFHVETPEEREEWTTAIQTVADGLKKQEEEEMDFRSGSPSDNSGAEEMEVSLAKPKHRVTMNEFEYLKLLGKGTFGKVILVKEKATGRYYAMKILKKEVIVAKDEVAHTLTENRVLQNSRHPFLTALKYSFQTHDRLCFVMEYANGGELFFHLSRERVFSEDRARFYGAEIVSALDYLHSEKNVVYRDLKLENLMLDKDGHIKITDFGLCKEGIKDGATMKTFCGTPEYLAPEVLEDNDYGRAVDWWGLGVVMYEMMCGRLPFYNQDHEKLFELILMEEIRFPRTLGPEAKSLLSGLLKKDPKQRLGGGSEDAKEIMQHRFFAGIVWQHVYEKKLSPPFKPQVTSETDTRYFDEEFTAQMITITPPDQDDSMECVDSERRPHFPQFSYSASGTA

[7] = target: T3, Serine/threonine-protein kinase BRSK1 (Homo sapiens) (UniProt Q8TDC3); assay: Selectivity interaction (Kinase panel (Invitrogen)) EUB0000639a BRSK1; details: at 200 nM
T3 sequence (whole entry): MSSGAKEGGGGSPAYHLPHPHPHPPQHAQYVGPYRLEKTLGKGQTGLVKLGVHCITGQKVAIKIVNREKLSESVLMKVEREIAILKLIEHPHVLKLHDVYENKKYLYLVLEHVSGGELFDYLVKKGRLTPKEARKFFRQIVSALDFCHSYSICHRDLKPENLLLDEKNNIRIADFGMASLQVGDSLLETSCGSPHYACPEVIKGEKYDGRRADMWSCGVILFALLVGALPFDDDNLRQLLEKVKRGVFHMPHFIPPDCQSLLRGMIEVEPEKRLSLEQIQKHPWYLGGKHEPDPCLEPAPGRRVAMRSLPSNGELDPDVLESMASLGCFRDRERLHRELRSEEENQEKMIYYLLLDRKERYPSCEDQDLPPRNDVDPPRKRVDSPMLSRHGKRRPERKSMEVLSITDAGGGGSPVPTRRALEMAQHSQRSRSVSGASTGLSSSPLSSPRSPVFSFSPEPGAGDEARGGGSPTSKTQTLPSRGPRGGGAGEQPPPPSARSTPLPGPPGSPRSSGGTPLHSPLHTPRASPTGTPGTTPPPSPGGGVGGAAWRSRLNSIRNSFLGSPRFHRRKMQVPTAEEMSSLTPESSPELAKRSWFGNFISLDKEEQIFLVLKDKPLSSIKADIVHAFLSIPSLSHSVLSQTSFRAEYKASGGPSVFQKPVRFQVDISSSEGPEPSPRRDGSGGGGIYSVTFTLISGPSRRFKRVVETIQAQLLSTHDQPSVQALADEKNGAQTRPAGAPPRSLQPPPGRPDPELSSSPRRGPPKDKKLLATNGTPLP

[8] = target: Serine/threonine-protein kinase 10 (Homo sapiens) (UniProt O94804); assay: Selectivity interaction (ActivX KiNativ screen (kinase selectivity in THP-1 cell lysates)) EUB0000639a STK10; format: subcellular; details: lysate
Serine/threonine-protein kinase 10 (Homo sapiens), sequence (O94804 whole entry, looked up): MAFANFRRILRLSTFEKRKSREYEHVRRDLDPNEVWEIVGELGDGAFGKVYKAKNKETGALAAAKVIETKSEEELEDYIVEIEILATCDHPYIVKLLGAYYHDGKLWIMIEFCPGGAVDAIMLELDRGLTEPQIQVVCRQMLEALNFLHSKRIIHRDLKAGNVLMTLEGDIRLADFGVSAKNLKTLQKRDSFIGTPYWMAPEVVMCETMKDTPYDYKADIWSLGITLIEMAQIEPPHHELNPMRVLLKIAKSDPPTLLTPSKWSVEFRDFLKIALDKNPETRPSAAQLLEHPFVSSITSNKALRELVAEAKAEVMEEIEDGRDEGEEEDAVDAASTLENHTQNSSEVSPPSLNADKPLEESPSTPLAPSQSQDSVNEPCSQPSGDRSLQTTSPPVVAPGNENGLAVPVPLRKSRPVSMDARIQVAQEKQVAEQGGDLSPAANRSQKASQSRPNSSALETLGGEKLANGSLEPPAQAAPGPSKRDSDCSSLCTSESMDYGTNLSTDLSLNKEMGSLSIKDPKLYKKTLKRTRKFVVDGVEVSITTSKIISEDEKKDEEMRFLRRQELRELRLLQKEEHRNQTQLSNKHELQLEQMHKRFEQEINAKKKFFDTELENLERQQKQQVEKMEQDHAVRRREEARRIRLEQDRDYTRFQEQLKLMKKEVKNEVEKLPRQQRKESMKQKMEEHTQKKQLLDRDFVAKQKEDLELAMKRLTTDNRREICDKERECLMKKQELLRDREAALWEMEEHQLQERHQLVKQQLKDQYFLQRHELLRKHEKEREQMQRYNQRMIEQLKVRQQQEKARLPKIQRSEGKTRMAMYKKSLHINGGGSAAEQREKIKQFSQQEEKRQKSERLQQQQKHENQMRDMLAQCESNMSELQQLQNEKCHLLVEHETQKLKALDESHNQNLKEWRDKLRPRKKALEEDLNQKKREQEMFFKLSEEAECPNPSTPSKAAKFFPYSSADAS

[9] = test system: Leucine-rich repeat serine/threonine-protein kinase 2 (Homo sapiens), Q5S007 [G2019S]; assay: (§1) Selectivity interaction (KinomeScan (DiscoverX)) EUB0000092b LRRK2; details: at 10 µM
[10] = target: Leucine-rich repeat serine/threonine-protein kinase 2 (Homo sapiens, UniProt Q5S007); assay: as §1; details: at 10 µM
[11] = target: Glycogen synthase kinase-3 beta (Homo sapiens, UniProt P49841); assay: Selectivity interaction (Ambit KINOMEscan and KiNATiv profiling in Jurkat cells) EUB0000090b GSK3B; format: cell-based; details: at 1 µM
Glycogen synthase kinase-3 beta, sequence (P49841 whole entry, looked up): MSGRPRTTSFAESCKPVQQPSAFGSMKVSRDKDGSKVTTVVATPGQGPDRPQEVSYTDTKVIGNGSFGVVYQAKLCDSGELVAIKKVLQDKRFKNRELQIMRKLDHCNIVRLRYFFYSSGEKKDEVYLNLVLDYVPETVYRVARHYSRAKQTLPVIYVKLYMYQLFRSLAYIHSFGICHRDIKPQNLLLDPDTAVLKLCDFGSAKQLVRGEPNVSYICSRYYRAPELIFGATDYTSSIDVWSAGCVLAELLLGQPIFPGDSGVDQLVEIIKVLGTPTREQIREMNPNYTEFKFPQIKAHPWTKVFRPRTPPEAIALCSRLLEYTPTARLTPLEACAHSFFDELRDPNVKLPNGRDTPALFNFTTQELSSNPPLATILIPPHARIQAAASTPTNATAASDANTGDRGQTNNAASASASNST

COCC(=O)NC/C=C/c1ccc2ncnc(Nc3ccc(Oc4ccc(C)nc4)c(C)c3)c2c1 [CP-724714]
% of control [1]: 0.5%

C=CC(=O)Nc1cccc(C(=O)Nc2ccc(Nc3cc(-c4[nH]c(SC)nc4C)ccn3)cc2)c1
% of control ([2]; at 1 µM): 94% | % of control ([2]; at 5 µM): 97%

COc1cc(C(=O)N2CC[C@@H](O)[C@@H](N)C2)cc2nc(-c3cc4ccccc4n3CC3CC3)n(C)c12
pXC50 [3]: 4.9 M

CNC(=O)Nc1ccc(-c2nc(N3CC4CCC(C3)O4)c3cnn(C4CCC5(CC4)OCCO5)c3n2)cc1
% of inhibition [4]: 2% | % of inhibition (Misshapen-like kinase 1): 14%

CC(C)(O)[C@H](F)CN1Cc2cc(NC(=O)c3cnn4cccnc34)c(N3CCOCC3)cc2C1=O
dTM [5]: 1.7 K

CC[C@@H]1[C@H](F)C(=O)N[C@@H]1COc1nccc2cc(C(N)=O)c(OC)cc12 [ZIMLOVISERTIB]
% of inhibition ([6]; at 0.01 µM): -4.8% | % of inhibition ([6]; at 0.04 µM): 7.5% | % of inhibition ([6]; at 0.2 µM): 11.8% | % of inhibition ([6]; at 1 µM): 9.4% | % of inhibition ([6]; at 5 µM): 7.6% | % of inhibition [7]: 23.6% | % of inhibition ([8]; at 0.01 µM): -11.4% | % of inhibition ([8]; at 0.04 µM): -6.2% | % of inhibition ([8]; at 0.2 µM): -5.3% | % of inhibition ([8]; at 1 µM): 2.8% | % of inhibition ([8]; at 5 µM): -12.4%

CCC(=O)N1CCN(c2ccc(-n3c(=O)ccc4cnc5ccc(-c6cnc7ccccc7c6)cc5c43)cc2C(F)(F)F)CC1
% of control [9]: 99% | % of control [10]: 81%

CN(C)C/C=C/C(=O)Nc1ccc(C(=O)N2CCCC(Nc3ncc(Cl)c(-c4c[nH]c5ccccc45)n3)C2)cc1 (stereo unspecified)
% of control [11]: 38%

— ChEMBL document CHEMBL5465560, “Selectivity Literature for EUbOPEN Chemogenomic Library” (2024)
